From patent US6375926B1, “Labelled elastase inhibitors” (Amersham International PLC, priority 1996, dated 2002)
Like-named read-outs stand apart in the source and are kept apart here.

How the values were obtained:
[1] = test system: human whole blood (granulocytes, monocytes + lymphocytes, erythrocytes); assay: In vitro cell uptake in human whole blood; assay type: cell-based; settings: 37° C. for 1 hour, radiolabelled compound
Method: The radioactive compound was added to 1 ml whole blood anticoagulated with ACD and incubated at 37° C. for 1 hour. The blood was diluted with HBSS and the cellular component separated by centrifugation. Distribution of activity within the cellular pellet was assessed by separation of cell fractions on Ficoll-Hypaque gradients as above.

[2] = test system: isolated human white cells (granulocytes; monocytes + lymphocytes); assay: In vitro cell uptake in isolated human white cells; assay type: cell-based; settings: for selectivity for granulocytes over a mixture of monocytes/lymphocytes: approximately equivalent numbers of monocytes/lymphocytes and granulocytes present; for % uptake in Gran. (granulocytes), WHITE CELLS / % uptake in Mon. (monocytes + lymphocytes), WHITE CELLS: isolated human white cells, 30 minutes at 37° C., radiolabelled compound
Method: Fresh blood (30-120 ml) was anticoagulated with 1.5% ACD solution and sedimented by addition of 2 ml Hespan per 10 ml blood for 90 minutes at room temperature. The leucocyte rich platelet rich plasma supernatant was removed and centrifuged at 150 g for 5 minutes, yielding a leucocyte rich pellet and platelet rich plasma (PRP). The PRP was centrifuged at 4000 g to pellet the platelets leaving a cell free plasma (CFP). The leucocyte pellet was resuspended in a 50:50 mixture of HBSS and CFP and incubated with the radioactive compound for 30 minutes at 37° C. Free radioactive material was then removed from the cells by addition of an excess of HBSS:CFP and centrifugation of the leucocytes at 150 g for 7 minutes. The supernatant and cell pellet were taken for radioactive counting for calculation of percentage cell uptake. The distribution of radioactivity within the cell pellet was assessed by separation of the cell types using Percoll density gradient centrifugation (38%, 55% and 73% Percoll in HBSS step gradients). The residual plasma and free activity was recovered from the top of the gradient, the mononuclear cells (lymphocytes and monocytes) from the interface between 38% and 55%, and the granulocytes were recovered from the interface between 55% and 73% Percoll.

[3] = test system: E. coli infected rats (experimental abscess); assay: In vivo biodistribution of ex vivo labelled human leucocytes in E. coli infected rats; set-up: species or system male Wistar rats; settings: ex vivo labelled human leucocytes injected i.v.
Method: (§1) The model: into the right gracilis (thigh) muscle of male Wistar rats (250-325 g) were injected 1 ml/kg of an E. coli suspension containing >> 5×10^8/ml organisms.
(§2) Validation: the model was validated for use in the development of diagnostic imaging agents of infection/inflammation by the intravenous injection of ^99mTc-HMPAO ex-vivo labelled human wbc or ^67Ga-citrate when the abscesses were 24 hours old. Animals were dissected between 4 and 24 hours after injection. ^99mTc-labelled red blood cells were used as a negative control.
Screening of Ex vivo labelled human leucocytes in E. coli infected rats: A mixed population of human leucocytes was incubated with elastase inhibitor for 30 minutes at 37° C. The cells were then spun down and resuspended in a known volume of rat plasma for intravenous injection into rats bearing a 24 hour old abscess. Animals were dissected at 4 and 24 hours post injection.

[4] = biological target: T1, HLE (human leucocyte elastase) (Homo sapiens, UniProt P08246); assay: Measurement of HLE inhibition potency (kinact/Ki); assay type: biochemical; set-up: Potency (M/sec), kinact/Ki: unit not given here
T1 sequence (P08246 30-267): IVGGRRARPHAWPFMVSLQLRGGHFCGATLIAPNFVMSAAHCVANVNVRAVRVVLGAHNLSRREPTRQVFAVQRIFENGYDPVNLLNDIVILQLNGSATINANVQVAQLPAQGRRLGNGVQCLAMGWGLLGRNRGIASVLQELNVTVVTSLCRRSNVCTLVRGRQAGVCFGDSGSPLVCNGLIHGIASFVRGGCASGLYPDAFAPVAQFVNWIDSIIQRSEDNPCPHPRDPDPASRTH
Method: Inhibitor potency against HLE is described by the parameter kinact/Ki as previously reported [Knight et al., Biochem., 8160-8170, (1992)]. Lyophilised enzyme was reconstituted with TrisHCl buffer, 100 mM, 0.5M NaCl at 0.05 units/ml (approximately nanomolar concentration) in a final reaction volume of 1 ml to which was added methoxysucc-ala-ala-pro-val-pNA substrate (1 mM) and the elastase inhibitor dissolved in DMSO. The reaction was monitored by detecting the change of absorbance at 410 nm (hydrolysis of the substrate releasing p-nitroaniline) over a timescale of 25 minutes. Values of kinact/Ki were estimated according to the Knight et al method.

[5] = In vivo stability of iodinated HLE inhibitors (thyroid uptake); set-up: species or system male Wistar rats; settings: i.v. injection
Method: The in vivo stability of radioiodinated HLE inhibitors was monitored by determination of the percentage uptake in the thyroid as a function of time after administration. Thus radioiodinated compounds and ^123I free iodide were injected into male Wistar rats. The percentage of injected dose distributing to the thyroid was calculated by dissection at 4 and 24 hours post injection and counting.

[6] = test system: mixed human red/white cells (granulocytes, monocytes + lymphocytes, erythrocytes); assay: In vitro cell uptake in mixed human red/white cells; assay type: cell-based; settings: radiolabelled compound
Method: The radioactive compound was also incubated with an isolated leucocyte preparation to which an erythrocyte fraction had been added back. The packed erythrocytes obtained after blood sedimentation were washed twice with HBSS and then resuspended in their original blood volume with HBSS. Leucocytes obtained from 30 ml blood were resuspended in 0.5 ml erythrocyte suspension and 0.5 ml CFP. The cell suspension was then incubated with compound as above. Analysis of the distribution of activity in the cell pellet in the presence of red blood cells was carried out using Ficoll-Hypaque discontinuous density gradients (densities 1.04, 1.077 and 1.119 g/ml Histopaque steps).

[7] = test system: E. coli infected rats (experimental abscess); assay: In vivo biodistribution in rats bearing experimental abscesses, direct intravenous injection; set-up: species or system male Wistar rats; settings: for uptake in the infected region compared with the ^99mTc-rbc control: ^123I-labelled, rat model of inflammation/infection; for Relative conc. In infected area / Infected/normal / Infected/blood: directly injected i.v.; for Relative conc. In infected area: % injected dose in a % body weight; for Infected/normal: ratio of % id/g infected area to contralateral thigh; for Infected/blood: ratio of %/g infected area to blood
Method: as §1, §2
The animals were sacrificed at either 4 or 24 hours post injection and relevant tissues dissected.

[8] = measured for non-radioactive iodine-labelled compounds and unlabelled chelate conjugates, read-out: Potency (M/sec), kinact/Ki
[9] = as listed in Table 24 beside the radiolabelled compounds
[10] = measured for non-radioactive iodine-labelled compounds and unlabelled chelate conjugates

| SMILES | % uptake in Eryth. (erythrocytes), WHOLE BLOOD [1] | % uptake in Gran. (granulocytes), WHOLE BLOOD [1] | % uptake in Mon. (monocytes + lymphocytes), WHOLE BLOOD [1] | selectivity for granulocytes over a mixture of monocytes/lymphocytes [2] | % uptake in Gran. (granulocytes), WHITE CELLS [2] | % uptake in Mon. (monocytes + lymphocytes), WHITE CELLS [2] | Infected/blood ([3]; 4 hrs post injection) | Infected/normal ([3]; 4 hrs post injection) | Infected/blood ([3]; 24 hrs post injection) | % dose in Thyroid ([5]; 4 hours) | % dose in Thyroid ([5]; 24 hours) | % uptake in Eryth. (erythrocytes), WHITE AND RED CELLS [6] | % uptake in Gran. (granulocytes), WHITE AND RED CELLS [6] | % uptake in Mon. (monocytes + lymphocytes), WHITE AND RED CELLS [6] | Relative conc. In infected area ([7]; 4 hrs post injection) | Infected/normal ([7]; 4 hrs post injection) | Infected/blood ([7]; 4 hrs post injection) | Relative conc. In infected area ([7]; 24 hrs post injection) | Infected/normal ([7]; 24 hrs post injection) | Infected/blood ([7]; 24 hrs post injection) | also measured |
| --- | --- | --- | --- | --- | --- | --- | --- | --- | --- | --- | --- | --- | --- | --- | --- | --- | --- | --- | --- | --- | --- |
| CCC1(CC)C(=O)N(C(=O)NCc2ccc(I)cc2)C1Oc1ccc(C(=O)N2CCN(C)CC2)cc1 (racemic) [Compound 4, 4-[4-[[(4-Methyl)piperazin-1-yl]carbonyl]phenoxy]-1-[(4-iodo)benzylaminocarbonyl]-3,3-diethyl-2-azetidinone] | 6.5% | 5.0% | 3.9% | some degree of selectivity for granulocytes | 25.7% | 2.0% | 0.61 | 1.5 | 0.75 | 0.1 % dose | 0.9 % dose | 14.2% | 14.4% | 3.4% | 0.51 | 1.3 | 0.62 | 0.12 | 1.3 | 0.51 | Infected/normal ([3]; 24 hrs post injection): 1.9; kinact/KI ([4]; as listed in Table 24 beside the radiolabelled compounds, read-out: kinact/Ki (human elastase)): 32000 M⁻¹ s⁻¹; kinact/KI [4, 8]: 32000 M⁻¹ s⁻¹; uptake in the infected region compared with the ^99mTc-rbc control [7]: significantly better uptake in the infected region |
| CCC1(CC)C(=O)N(C(=O)NCc2ccc(I)cc2)C1Oc1ccc(C(=O)N2CCN(C)CC2)cc1 (single isomer, unassigned) [Compound 4a] | – | – | – | some degree of selectivity for granulocytes | 68.6% | 14.3% | – | – | – | 0.1 % dose | 0.3 % dose | 8.4% | 53.2% | 14.6% | 0.52 | 1.0 | 0.62 | 0.28 | 1.6 | 0.53 | kinact/Ki (human elastase) [4, 9]: 36000; Potency (M/sec), kinact/Ki [4, 10]: 63,000; uptake in the infected region compared with the ^99mTc-rbc control [7]: significantly better uptake in the infected region |
| CCC[C@@H](NC(=O)N1C(=O)C(CC)(CC)[C@@H]1Oc1ccc(C(=O)N2CCN(C)CC2)cc1)c1ccc(I)cc1 [Compound 24, 4S-[4-[[(4-methyl)piperazin-1-yl]carbonyl]phenoxy]-1-[(R-α-n-propyl)-(4-iodo)benzylaminocarbonyl]-3,3-diethyl-2-azetidinone] | 16.6% | 24.3% | 13.6% | some degree of selectivity for granulocytes | 83.2% | 3.4% | 0.9 | 1.3 | 0.9 | 0.2 % dose | 0.6 % dose | 41.7% | 40.4% | 4.0% | 0.38 | 1.3 | 1.3 | 0.16 | 1.1 | 0.9 | Relative conc. In infected area ([3]; 4 hrs post injection): 0.53; Infected/normal ([3]; 24 hrs post injection): 1.3; Relative conc. In infected area ([3]; 24 hrs post injection): 0.20; kinact/Ki (human elastase) [4, 9]: 2830000; Potency (1/(M·s)), kinact/Ki [4, 10]: 2.83e+06 M⁻¹ s⁻¹ |
| [123IH] [[^123I]-iodide, reference compound] | – | – | – | – | – | – | – | – | – | 6.8 % dose | 22.2 % dose | – | – | – | – | – | – | – | – | – | – |
| CCC1(CC)C(=O)N(C(=O)NCCc2ccc(O)c(I)c2)C1S(=O)(=O)CCOC (stereo not shown) [Compound 16, 4-[2-Methoxyethylsulfonyl]-1-[(4-hydroxy)(3-iodo)phenylethylaminocarbonyl]-3,3-diethyl-2-azetidinone] | 0.2% | 0.2% | 0.6% | some degree of selectivity for granulocytes | 0.55% | 0.0% | – | – | – | 0.3 % dose | 2.4 % dose | 0.6% | 0.3% | 0.6% | – | – | – | – | – | – | kinact/KI [4, 8]: 2700 M⁻¹ s⁻¹ |
| CCC[C@@H](NC(=O)N1C(=O)C(CC)(CC)[C@@H]1Oc1cccnc1)c1ccc(I)cc1 [Compound 28, 4S-(Pyridyl-3-oxy)-1-[(R-α-n-propyl)-(4-iodo)benzylaminocarbonyl]-3,3-diethyl-2-azetidinone] | – | – | – | some degree of selectivity for granulocytes | 67.4% | 14.8% | 0.9 | 1.5 | 0.9 | – | – | 17.5% | 41.9% | 14.9% | 0.22 | 1.3 | 1.1 | 0.12 | 1.2 | 1.2 | Relative conc. In infected area ([3]; 4 hrs post injection): 0.45; Infected/normal ([3]; 24 hrs post injection): 1.2; Relative conc. In infected area ([3]; 24 hrs post injection): 0.16; kinact/Ki (human elastase) [4, 9]: 650000; Potency (1/(M·s)), kinact/Ki [4, 10]: 650000 M⁻¹ s⁻¹ |
